How the values were obtained:
OVCAR-3 = test: NCI60 one-dose screen (10 μM), Ovarian Cancer; assay type: cell-based; conditions: Homo sapiens; 10 μM; OVCAR-3, Ovarian Cancer; read-out: Growth percent rate
SNB-19 = test: NCI60 one-dose screen (10 μM), CNS Cancer; assay type: cell-based; conditions: Homo sapiens; 10 μM; SNB-19, CNS Cancer; read-out: Growth percent rate
RPMI-8226 = test: NCI60 one-dose screen (10 μM), Leukemia; assay type: cell-based; conditions: Homo sapiens; 10 μM; RPMI-8226, Leukemia; read-out: Growth percent rate
HT29 = test: NCI60 one-dose screen (10 μM), Colon Cancer; assay type: cell-based; conditions: Homo sapiens, HT-29; 10 μM; HT29, Colon Cancer; read-out: Growth percent rate
MCF7 = test: NCI60 one-dose screen (10 μM), Breast Cancer; assay type: cell-based; conditions: Homo sapiens; 10 μM; MCF7, Breast Cancer; read-out: Growth percent rate
HOP-62 = test: NCI60 one-dose screen (10 μM), Non-small Cell Lung Cancer; assay type: cell-based; conditions: Homo sapiens; 10 μM; HOP-62, Non-small Cell Lung Cancer; read-out: Growth percent rate
MDA-MB-435 = test: NCI60 one-dose screen (10 μM), Melanoma; assay type: cell-based; conditions: Homo sapiens; 10 μM; MDA-MB-435, Melanoma; read-out: Growth percent rate
SF-295 = test: NCI60 one-dose screen (10 μM), CNS Cancer; assay type: cell-based; conditions: Homo sapiens; 10 μM; SF-295, CNS Cancer; read-out: Growth percent rate
KM12 = test: NCI60 one-dose screen (10 μM), Colon Cancer; assay type: cell-based, human; conditions: Homo sapiens; 10 μM; KM12, Colon Cancer; read-out: Growth percent rate
MALME-3M = test: NCI60 one-dose screen (10 μM), Melanoma; assay type: cell-based; conditions: Homo sapiens; 10 μM; MALME-3M, Melanoma; read-out: Growth percent rate
UACC-257 = test: NCI60 one-dose screen (10 μM), Melanoma; assay type: cell-based; conditions: Homo sapiens; 10 μM; UACC-257, Melanoma; read-out: Growth percent rate
M14 = test: NCI60 one-dose screen (10 μM), Melanoma; assay type: cell-based; conditions: Homo sapiens; 10 μM; M14, Melanoma; read-out: Growth percent rate
NCI-H460 = test: NCI60 one-dose screen (10 μM), Non-small Cell Lung Cancer; assay type: cell-based; conditions: Homo sapiens; 10 μM; NCI-H460, Non-small Cell Lung Cancer; read-out: Growth percent rate
NCI-H322M = test: as above; assay type: cell-based; conditions: Homo sapiens, 10 μM, Non-small Cell Lung Cancer, read-out: Growth percent rate
HCC-2998 = test: NCI60 one-dose screen (10 μM), Colon Cancer; assay type: cell-based; conditions: Homo sapiens; 10 μM; HCC-2998, Colon Cancer; read-out: Growth percent rate
OVCAR-8 = test: NCI60 one-dose screen (10 μM), Ovarian Cancer; assay type: cell-based; conditions: Homo sapiens; 10 μM; OVCAR-8, Ovarian Cancer; read-out: Growth percent rate
DU-145 = test: NCI60 one-dose screen (10 μM), Prostate Cancer; assay type: cell-based; conditions: Homo sapiens; 10 μM; DU-145, Prostate Cancer; read-out: Growth percent rate
A498 = test: NCI60 one-dose screen (10 μM), Renal Cancer; assay type: cell-based; conditions: Homo sapiens; 10 μM; A498, Renal Cancer; read-out: Growth percent rate
CCRF-CEM = test: NCI60 one-dose screen (10 μM), Leukemia; assay type: cell-based; conditions: Homo sapiens, 10 μM, Leukemia, read-out: Growth percent rate
MOLT-4 = test: NCI60 one-dose screen (10 μM), Leukemia; assay type: cell-based, human; conditions: Homo sapiens; 10 μM; MOLT-4, Leukemia; read-out: Growth percent rate
HCT-116 = test: NCI60 one-dose screen (10 μM), Colon Cancer; assay type: cell-based; conditions: Homo sapiens; 10 μM; HCT-116, Colon Cancer; read-out: Growth percent rate
SNB-75 = test: NCI60 one-dose screen (10 μM), CNS Cancer; assay type: cell-based, human; conditions: Homo sapiens; 10 μM; SNB-75, CNS Cancer; read-out: Growth percent rate
HL-60(TB) = test: NCI60 one-dose screen (10 μM), Leukemia; assay type: cell-based; conditions: Homo sapiens; 10 μM; HL-60(TB), Leukemia; read-out: Growth percent rate
[1] = test system: 60 human tumor cell lines (NCI60); test: NCI60 one-dose screen (10 μM), whole panel; assay type: cell-based; conditions: 10 μM; mean over 60 human cancer cell lines; read-out: Growth percent rate, Mean
SF-268 = test: NCI60 one-dose screen (10 μM), CNS Cancer; assay type: cell-based; conditions: Homo sapiens; 10 μM; SF-268, CNS Cancer; read-out: Growth percent rate
CAKI-1 = test: NCI60 one-dose screen (10 μM), Renal Cancer; assay type: cell-based; conditions: Homo sapiens; 10 μM; CAKI-1, Renal Cancer; read-out: Growth percent rate
TK-10 = test: NCI60 one-dose screen (10 μM), Renal Cancer; assay type: cell-based; conditions: Homo sapiens; 10 μM; TK-10, Renal Cancer; read-out: Growth percent rate
SK-MEL-28 = test: NCI60 one-dose screen (10 μM), Melanoma; assay type: cell-based; conditions: Homo sapiens; 10 μM; SK-MEL-28, Melanoma; read-out: Growth percent rate
SK-MEL-5 = test: NCI60 one-dose screen (10 μM), Melanoma; assay type: cell-based, human; conditions: for activity at 10 µM: Homo sapiens, SK-MEL-5, Melanoma, read-out: Growth percent rate
U251 = test: NCI60 one-dose screen (10 μM), CNS Cancer; assay type: cell-based; conditions: Homo sapiens, U-251; 10 μM; U251, CNS Cancer; read-out: Growth percent rate
786–0 = test: NCI60 one-dose screen (10 μM), Renal Cancer; assay type: cell-based; conditions: Homo sapiens; 10 μM; 786-0, Renal Cancer; read-out: Growth percent rate
A549/ATCC = test: NCI60 one-dose screen (10 μM), Non-small Cell Lung Cancer; assay type: cell-based; conditions: Homo sapiens; 10 μM; A549/ATCC, Non-small Cell Lung Cancer; read-out: Growth percent rate
SK-MEL-2 = test: NCI60 one-dose screen (10 μM), Melanoma; assay type: cell-based; conditions: Homo sapiens; 10 μM; SK-MEL-2, Melanoma; read-out: Growth percent rate
NCI-H522 = test: NCI60 one-dose screen (10 μM), Non-small Cell Lung Cancer; assay type: cell-based; conditions: Homo sapiens; 10 μM; NCI-H522, Non-small Cell Lung Cancer; read-out: Growth percent rate
NCI-H23 = test: as above; assay type: cell-based; conditions: Homo sapiens; 10 μM; NCI-H23, Non-small Cell Lung Cancer; read-out: Growth percent rate
SW-620 = test: NCI60 one-dose screen (10 μM), Colon Cancer; assay type: cell-based; conditions: Homo sapiens; 10 μM; SW-620, Colon Cancer; read-out: Growth percent rate
IGROV1 = test: NCI60 one-dose screen (10 μM), Ovarian Cancer; assay type: cell-based; conditions: Homo sapiens, IGROV-1; 10 μM; IGROV1, Ovarian Cancer; read-out: Growth percent rate
EKVX = test: NCI60 one-dose screen (10 μM), Non-small Cell Lung Cancer; assay type: cell-based; conditions: Homo sapiens, 10 μM, Non-small Cell Lung Cancer, read-out: Growth percent rate
SN12C = test: NCI60 one-dose screen (10 μM), Renal Cancer; assay type: cell-based; conditions: Homo sapiens, 10 μM, Renal Cancer, read-out: Growth percent rate
ACHN = test: NCI60 one-dose screen (10 μM), Renal Cancer; assay type: cell-based; conditions: Homo sapiens, 10 μM, Renal Cancer, read-out: Growth percent rate
K-562 = test: NCI60 one-dose screen (10 μM), Leukemia; assay type: cell-based; conditions: Homo sapiens, K562; 10 μM; K-562, Leukemia; read-out: Growth percent rate
OVCAR-4 = test: NCI60 one-dose screen (10 μM), Ovarian Cancer; assay type: cell-based; conditions: Homo sapiens; 10 μM; OVCAR-4, Ovarian Cancer; read-out: Growth percent rate

Work on CC[C@]12C=CCN3CC[C@@]4(c5ccc(OC)cc5N(C)[C@H]4[C@@](O)(C(=O)OC)[C@@H]1OC(=O)CCC(=O)N1CCN(C)CC1)[C@@H]32 [Compound 27] yielded an activity at 10 µM (OVCAR-3) of 89.2%, an activity at 10 µM (SNB-19) of 108% and an activity at 10 µM (RPMI-8226) of 94.5%. The activity at 10 µM (HT29) was 96.7%, the activity at 10 µM (MCF7) was 81% and the activity at 10 µM (HOP-62) was 119%. For the same molecule, the activity at 10 µM (MDA-MB-435) was 121%, the activity at 10 µM (SF-295) was 97.9% and the activity at 10 µM (KM12) was 100%. It also gave an activity at 10 µM (MALME-3M) of 112%, an activity at 10 µM (UACC-257) of 99.2% and an activity at 10 µM (M14) of 114%. For the same molecule, the activity at 10 µM (NCI-H460) was 102%, the activity at 10 µM (NCI-H322M) was 110% and the activity at 10 µM (HCC-2998) was 86.5%. The activity at 10 µM (OVCAR-8) was 99.6%, the activity at 10 µM (DU-145) was 103% and the activity at 10 µM (A498) was 105%. The activity at 10 µM (CCRF-CEM) was 104%, the activity at 10 µM (MOLT-4) was 100% and the activity at 10 µM (HCT-116) was 103%. The activity at 10 µM (SNB-75) was 64.3%, the activity at 10 µM (HL-60(TB)) was 112% and the activity at 10 µM [1] was 99.5%. It also gave an activity at 10 µM (SF-268) of 99.5%, an activity at 10 µM (CAKI-1) of 96.6% and an activity at 10 µM (TK-10) of 91.9%. For the same molecule, the activity at 10 µM (SK-MEL-28) was 94.8%, the activity at 10 µM (SK-MEL-5) was 91.5% and the activity at 10 µM (U251) was 110%. For the same molecule, the activity at 10 µM (786–0) was 99.7%, the activity at 10 µM (A549/ATCC) was 94.2% and the activity at 10 µM (SK-MEL-2) was 88.2%. The activity at 10 µM (NCI-H522) was 84.5%, the activity at 10 µM (NCI-H23) was 98.9% and the activity at 10 µM (SW-620) was 105%. It also gave an activity at 10 µM (IGROV1) of 96.8%, an activity at 10 µM (EKVX) of 90.7% and an activity at 10 µM (SN12C) of 86.7%. The activity at 10 µM (ACHN) was 99.2%, the activity at 10 µM (K-562) was 124% and the activity at 10 µM (OVCAR-4) was 105%.
In the case of CC[C@]12C=CCN3CC[C@@]4(c5ccc(OC)cc5N(C)[C@H]4[C@@](O)(C(=O)OC)[C@@H]1OC(=O)CCC(=O)N1CCN(c4ccc(C(F)(F)F)cc4)CC1)[C@@H]32 [Compound 28], the activity at 10 µM (OVCAR-3) is reported as -2.22%, the activity at 10 µM (SNB-19) is reported as 16.2% and the activity at 10 µM (RPMI-8226) is reported as 8.8%. The activity at 10 µM (HT29) was -50.4%, the activity at 10 µM (MCF7) was 3.97% and the activity at 10 µM (HOP-62) was 30.4%. For the same molecule, the activity at 10 µM (MDA-MB-435) was 5.7%, the activity at 10 µM (SF-295) was 1.73% and the activity at 10 µM (KM12) was 3.83%. It also gave an activity at 10 µM (MALME-3M) of 2.45%, an activity at 10 µM (UACC-257) of 19.5% and an activity at 10 µM (M14) of -66.8%. It also gave an activity at 10 µM (NCI-H460) of 1.83%, an activity at 10 µM (NCI-H322M) of 43.7% and an activity at 10 µM (HCC-2998) of -75.2%. It also gave an activity at 10 µM (OVCAR-8) of 10.7%, an activity at 10 µM (DU-145) of 15.4% and an activity at 10 µM (A498) of 21.6%. It also gave an activity at 10 µM (CCRF-CEM) of 4.4%, an activity at 10 µM (MOLT-4) of 18.7% and an activity at 10 µM (HCT-116) of 29.4%. The activity at 10 µM (SNB-75) was 26.2%, the activity at 10 µM (HL-60(TB)) was 4.32% and the activity at 10 µM [1] was -3.07%. For the same molecule, the activity at 10 µM (SF-268) was 13.1%, the activity at 10 µM (CAKI-1) was -10.2% and the activity at 10 µM (TK-10) was -5.03%. The activity at 10 µM (SK-MEL-28) was 15%, the growth percent rate (SK-MEL-5; 10 μM one-dose, SK-MEL-5 melanoma, negative = lethality) was −92.46% and the activity at 10 µM (SK-MEL-5) was -92.5%. The activity at 10 µM (U251) was 12.4%, the activity at 10 µM (786–0) was 20.7% and the activity at 10 µM (A549/ATCC) was 13.6%. The activity at 10 µM (SK-MEL-2) was -84.7%, the activity at 10 µM (NCI-H522) was -9.16% and the activity at 10 µM (NCI-H23) was 8.32%. The activity at 10 µM (SW-620) was 20.7%, the activity at 10 µM (IGROV1) was -42.3% and the activity at 10 µM (EKVX) was 20.9%. The activity at 10 µM (SN12C) was 9.74%, the activity at 10 µM (ACHN) was -3.87% and the activity at 10 µM (K-562) was 16.9%. The activity at 10 µM (OVCAR-4) was 6.5%.

From PMC11277489, “Novel Piperazine Derivatives of Vindoline as Anticancer Agents” (International Journal of Molecular Sciences, 2024)
